Reference: ChEMBL document CHEMBL3739422, “Hydroxytyrosol-Derived Compounds: A Basis for the Creation of New Pharmacological Agents for Cancer Prevention and Therapy” (J Med Chem, 2015)
Each block holds one compound with its values, some of them ahead of it.

Assays:
HeLa = experiment: Antioxidant activity in human HeLa cells assessed as reduction in iron-reactive oxidative stress preincubated for 4 hrs prior to FeSO4 addition measured after 1 hr by TBARS assay; assay type: functional; design: scale not given: the % may be the effect or the level left
Rattus norvegicus [1] = experiment: Inhibition of A23187-induced TXA2 synthesis in Wistar rat at 1 to 100 mg/kg, po qd administered for 7 days measured after 1 hr post last dose by enzyme immunoassay; assay type: functional
Rattus norvegicus [2] = experiment: Induction of NO production in Wistar rat at 1 to 100 mg/kg, po qd administered for 7 days measured after 1 hr post last dose by enzyme immuno assay; assay type: functional
Rattus norvegicus [3] = experiment: Inhibition of collagen-induced platelet aggregation in po dosed Wistar rat administered for 7 days measured after 1 hr post last dose by aggregometric analysis; assay type: functional; conditions: read-out: ID50 (the source's name)
[4] = Cytotoxicity against human Caco2/TC7 cells assessed as growth inhibition at 5 uM after 24 hrs by WST-1 assay; assay type: functional; conditions: Caco-2, 24 h, read-out: GI
Platelet [5] = experiment: Inhibition of collagen-induced platelet aggregation in human whole blood preincubated for 10 mins prior to collagen addition measured after 10 mins by aggregometric analysis; assay type: functional, tissue-based
[6] = Cytotoxicity against human Caco2/TC7 cells assessed as growth inhibition after 24 hrs by WST-1 assay; assay type: functional, cell-based; conditions: Caco-2, 24 h
[7] = Selectivity ratio of IC50 for human MRC5 cells to IC50 for human A549 cells; assay type: ADME, cell-based; conditions: MRC5 cells versus A549 cells, read-out: Ratio IC50
MRC5 = experiment: Cytotoxicity against human MRC5 cells assessed as cell viability after 48 hrs by MTT assay; assay type: cell-based; conditions: MRC5, 48 h
A549 = experiment: Cytotoxicity against human A549 cells assessed as cell viability after 48 hrs by MTT assay; assay type: functional, cell-based; conditions: A549, 48 h
THP-1 [8] = experiment: Inhibition of LPS-induced TNFalpha production in human THP1 cells at 0.5 uM after 3 hrs by microplate reader analysis; assay type: functional; conditions: THP-1, 3 h
THP-1 [9] = experiment: Inhibition of LPS-induced TNFalpha production in human THP1 cells at 100 uM after 3 hrs by microplate reader analysis; assay type: functional; conditions: THP-1, 3 h
THP-1 [10] = experiment: Inhibition of LPS-induced TNFalpha production in human THP1 cells at 10 uM after 3 hrs by microplate reader analysis; assay type: functional; conditions: THP-1, 3 h
Rattus norvegicus [11] = experiment: Inhibition of collagen-induced platelet aggregation in Wistar rat at 20 mg/kg, po qd administered for 7 days measured after 1 hr post last dose by aggregometric analysis; assay type: functional
Rattus norvegicus [12] = experiment: Inhibition of A23187-induced TXA2 synthesis in Wistar rat at 20 mg/kg, po qd administered for 7 days measured after 1 hr post last dose by enzyme immuno assay; assay type: functional
Rattus norvegicus [13] = experiment: Inhibition of plasma lipid peroxide in Wistar rat at 20 mg/kg, po qd administered for 7 days measured after 1 hr post last dose by spectrophotometric analysis; assay type: functional
Rattus norvegicus [14] = experiment: Induction of NO production in Wistar rat at 1 to 10 mg/kg, po qd administered for 7 days measured after 1 hr post last dose by enzyme immuno assay; assay type: functional
Platelet [15] = experiment: Inhibition of collagen-induced platelet aggregation in human platelet rich plasma preincubated for 10 mins; assay type: functional, cell-free
Platelet [16] = experiment: Inhibition of ADP-induced platelet aggregation in human platelet rich plasma preincubated for 10 mins; assay type: functional, cell-free

SMILES: CCCCCCCC/C=C\CCCCCCCC(=O)OCCc1ccc(O)c(O)c1
Activity (HeLa): 38%

IC50 (Platelet [5]): 10 µM
SMILES: CC(=O)OCCc1ccc(O)c(O)c1
inhibition (INH) (Rattus norvegicus [1]): 37%
inhibition (INH) (Rattus norvegicus [2]): 66%
ED50 (Rattus norvegicus [3]): 16.1 mg/kg/day
inhibition of growth at 5 µM [4]: 20%
Activity (HeLa): 36%
IC50 [6]: 32 µM

SMILES: CCCCCCCCCCCCOCCc1ccc(O)c(O)c1
selectivity ratio [7]: 2.46
IC50 (MRC5): 49 µM
IC50 (A549): 20 µM

SMILES: Oc1cc2c(cc1O)C(c1ccccc1)OCC2 (stereo not given)
inhibition at 0.5 µM (THP-1 [8]): 30%
inhibition at 100 µM (THP-1 [9]): 80%
inhibition at 10 µM (THP-1 [10]): 60%

IC50 (Platelet [5]): 0.1 µM
SMILES: CCCCCCOCCc1ccc(O)c(O)c1
inhibition in vivo at 20 mg/kg (Rattus norvegicus [11]): 58.7%
inhibition in vivo at 20 mg/kg (Rattus norvegicus [12]): 58.7%
inhibition in vivo at 20 mg/kg (Rattus norvegicus [13]): 84.7%

SMILES: CC(=O)Oc1ccccc1C(=O)O [ASPIRIN]
ED50 (Rattus norvegicus [3]): 2.42 mg/kg/day
inhibition (INH) (Rattus norvegicus [14]): 64%

SMILES: OCCc1ccc(O)c(O)c1 [HYDROXYTYROSOL]
inhibition (INH) (Rattus norvegicus [1]): 30%
inhibition (INH) (Rattus norvegicus [2]): 34.2%
ED50 (Rattus norvegicus [3]): 48.2 mg/kg/day
IC50 (Platelet [15]): 67 µM
IC50 (Platelet [16]): 27 µM
